Laboratory results taken from article PMC6943638, “Lectin PLL3, a Novel Monomeric Member of the Seven-Bladed β-Propeller Lectin Family” (Molecules, 2019).
Read-outs that look alike come from different tables or passages of the source.

Tests used:
PLL3 [1] = molecular target: T1, PLL3 (Photorhabdus laumondii subsp. laumondii, UniProt Q7N8I7); assay: Surface plasmon resonance, apparent KD on immobilized glycans; format: binding; details: SPR, immobilized glycan, PLL3 100 to 0.195 μM, steady-state
T1 sequence (Q7N8I7 entry or part of it): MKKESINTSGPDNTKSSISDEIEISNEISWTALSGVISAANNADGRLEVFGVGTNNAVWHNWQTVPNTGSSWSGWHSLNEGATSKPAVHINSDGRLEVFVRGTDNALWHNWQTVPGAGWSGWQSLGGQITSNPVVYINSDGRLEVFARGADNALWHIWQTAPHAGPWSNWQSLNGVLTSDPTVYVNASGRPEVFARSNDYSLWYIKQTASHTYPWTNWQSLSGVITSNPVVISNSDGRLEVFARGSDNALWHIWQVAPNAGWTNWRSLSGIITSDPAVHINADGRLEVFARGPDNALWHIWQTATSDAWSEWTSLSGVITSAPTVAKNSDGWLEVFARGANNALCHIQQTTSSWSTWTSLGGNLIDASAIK
Procedure: (§1) SPR experiments were performed in a BIAcore T200 instrument (GE Healthcare, UK) using a four-channel sensor chip CM5 with a carboxymethyldextran surface layer (GE Healthcare, UK). Saccharides were immobilized on the chip surface using the procedure as described elsewhere. Immobilization was performed in the HBS buffer (10 mM HEPES, 150 mM NaCl, 0.05% Tween 20, pH 7.5) at a flow rate of 10 μL min^−1. For OMeDis immobilization, the surface of the channel was activated with N-hydroxysuccinimide/N-ethyl-N-(3-dimethylaminopropyl)carbodiimide solution (NHS/EDC) and subsequently OMeDis covalently modified by linker (-O-(p-C6H4)-OCH2CH2NH2) in HBS was injected. The final response of immobilized OMeDis was 136 RU. Non-reacted groups were blocked by 1 M ethanolamine/HCl (pH 8.5). A corresponding blank channel was prepared the same way, omitting the ligand injection. […] Biotinylated α-L-fucoside was injected onto this channel to the final response of 63 RU. A corresponding blank channel was prepared the same way without the injection of biotinylated fucoside.
(§2) Between individual injections, the channels were regenerated by 50 mM NaOH for 30 s. The experiment was run at a flow rate of 30 μL min^−1 and a contact time of 120 s. The concentration of PLL3 ranged from 100 μM to 0.195 μM. An apparent KD was calculated in BIAevaluation software using the steady-state approach.

PLL3 [2] = assay: as above; format: binding, Photorhabdus laumondii subsp. laumondii; details: PLL3 compared with PLL2 and PHL of ref 17
Procedure: as §1, §2

PLL3 [3] = molecular target: T1, PLL3; assay: Hemagglutination inhibition assay (PLL3 with erythrocytes of blood group O); format: cell-based; details: PLL3 50 μM; for inhibition of hemagglutination: blood group O erythrocytes, saccharide 100 to 0.1 mM; for minimal inhibitory concentration (MIC) of hemagglutination: erythrocytes of blood group O 10% (v/v)
Procedure: For the hemagglutination inhibition assay, the PLL3 was mixed with serially diluted saccharides (L-fucose, αMeFuc, D-galactose, D-glucose, and 3-O-methyl-D-glucose) dissolved in PBS buffer, and mixtures were incubated for 15 min at room temperature. Subsequently, erythrocytes of blood group O were added into the mixture with following incubation for 15 min. The final concentration was 50 μM for the PLL3 and 10% (v/v) for erythrocytes. Concentrations of L-fucose and αMeFuc ranged from 50 to 0.05 mM. Concentrations of D-galactose, D-glucose, and 3-O-methyl-D-glucose ranged from 100 to 0.1 mM. Each sample was observed under the optical microscope (Olympus IX81 with camera DP72; 200x magnification; SW CellSens Dimension, Olympus corporation, Tokyo, Japan).

PLL3 [4] = molecular target: T1, PLL3; assay: Isothermal titration calorimetry (ITC); format: binding
Procedure: ITC experiments were carried out using an AutoITC200 calorimeter (Malvern, UK) at 25 °C. The purified lectin was dialyzed against 20 mM Tris/HCl, 150 mM NaCl, pH 7.5 buffer before measurements. Individual ligands (L-fucose, αMeFuc, D-galactose, D-glucose, 3-O-methyl-D-glucose, and decavalent fucosylated glycoclusters 4a and 4b) were dissolved in the same buffer. PLL3 (100 μM) in the cell was titrated by the successive addition (2.0 μL) of the ligand in the syringe (20 mM for monosaccharides, 1 mM for multivalent fucosides). Experiments with monosaccharides were performed at stirring 750 rpm with a reference power of 10 μcal s^−1. Experiments with multivalent fucosides were performed at stirring 500 rpm with a reference power of 6 μcal s^−1. Titrations were carried out in three independent measurements for each ligand. Blank measurements were subtracted from collected data. For multivalent fucosides, two blank measurements were performed: titration of the buffer into the cell with PLL3 and titration of the buffer into the buffer. For monosaccharides, the additional blank measurement, the titration of a given ligand into the cell with buffer, was performed. The data were evaluated in software MicroCal PEAQ-ITC Analysis Software (Malvern, UK) by using the global fit method. Integrated heat effects were analyzed by nonlinear regression.

PLL3 [5] = molecular target: T1, PLL3; assay: SPR inhibition test on immobilized OMeDis; format: binding
Procedure: as §1
SPR inhibition tests were carried out on a channel with immobilized OMeDis using the same buffer and flow rate values as those for the binding studies. The final concentration of the lectin was 20 μM. PLL3 was mixed with serially diluted saccharides (50–0.05 mM for L-fucose; 12.5–0.013 mM for αMeFuc; 200–0.2 mM for 3-O-methyl-D-glucose; and 400–0.4 mM for D-glucose and D-galactose) and injected onto the chip. The lectin sample without ligand was used as a control with 0% inhibition effect. The response of blank channel as well as the response of corresponding saccharides were subtracted from the response of lectin bound to the OMeDis surface at equilibrium. A final response was plotted against the concentration of inhibitor in order to determine IC50 (concentration of inhibitor resulting in 50% inhibition of binding).

PLL3 [6] = molecular target: T1, PLL3; assay: Glycan array screening with DyLight 488-labeled PLL3; format: binding; details: PLL3 200 μg mL^-1, hexaplicates
Description: Purified PLL3 protein was labeled with DyLight 488 NHS Ester (Thermo Scientific, Rockford, MI, USA) according to the manual instructions of the manufacturer. The unbound dye was removed from the solution using the Zeba Spin Desalting Column (Thermo scientific). The labeled lectin was used for glycan array screening using a glycan microarray chip (Semiotik, Moscow, Russia; chip format OSPS280715; slide number 10085636) containing over 600 mammalian and bacterial glycans (all in hexaplicates). The glycan microarray chip was incubated in 1.0 mL of PBS buffer supplemented with 0.1% (v/v) Tween 20 and placed in a humid chamber for 15 min (37 °C, 40 rpm). Then, the buffer was replaced by 0.5 mL PLL3 (200 μg mL^−1) diluted in PBS buffer with 0.1% Tween 20 and 1% (w/v) bovine serum albumin (Serva, Germany). After incubation (90 min, 37 °C, 40 rpm), the chip was washed by decreasing concentrations of PBS with 0.1% Tween 20, followed by multiple immersions in ultrapure water. Subsequently, the chip was dried by air blow. Fluorescence was read with a scanner InnoScan 1100 AL (Innopsys, Carbonne, France) with a 488 nm laser at 20 °C. The data were analyzed with the software Mapix 8.2.2 and an online glycan chip converter (Semiotik, https://rakitko.shinyapps.io/semiotik). The relative fluorescent response of PLL3 binding was calculated from hexaplicates of each glycan immobilized onto the chip. Only glycans with a response three or more times higher than trehalose and concurrently with a signal-to-noise ratio higher than two were considered as significant binders.

[7] = stoichiometry fixed to 3, 25 °C, read-out: KD
[8] = stoichiometry fixed to 4, 25 °C, read-out: KD
[9] = stoichiometry fixed to 5, 25 °C, read-out: KD
[10] = stoichiometry fixed to 6, 25 °C, read-out: KD
[11] = stoichiometry fixed to 7, 25 °C, read-out: KD

Compound	inhibition of hemagglutination (PLL3 [3])	Kd (PLL3 [4]; [7])	Kd (PLL3 [4]; [8])	Kd (PLL3 [4]; [9])	Kd (PLL3 [4]; [10])	Kd (PLL3 [4]; [11])	also measured
3,6-O-Me2-Glcβ1-4(2,3-O-Me2)Rhaα [OMeDis]							Kd (PLL3 [1]): 0.607 ± 0.046 mM; interaction with immobilized OMeDis, fold weaker than for PLL2 and PHL (PLL3 [2]): 10^5 fold
CO[C@@H]([C@H](O)[C@H](O)CO)[C@@H](O)C=O [3-O-methyl-D-glucose]	did not inhibit hemagglutination	11.3 ± 1.55 mM	11.1 ± 1.5 mM	10.9 ± 1.5 mM	10.7 ± 1.5 mM	10.4 ± 1.45 mM	Kd (PLL3 [4]; text summary over stoichiometry fixed 3 to 7, read-out: KD values): > 10.4 mM; IC50 (PLL3 [5]): 26.4 ± 2.84 mM
O=C[C@H](O)[C@@H](O)[C@@H](O)[C@H](O)CO [D-galactose]	did not inhibit hemagglutination						Kd (PLL3 [4]; KD, stoichiometry fixed to 3, 25 °C): 2.8 ± 0.14 mM; Kd (PLL3 [4]; KD, stoichiometry fixed to 4, 25 °C): 2.7 ± 0.14 mM; Kd (PLL3 [4]; KD, stoichiometry fixed to 5, 25 °C): 2.6 ± 0.13 mM; Kd (PLL3 [4]; KD, stoichiometry fixed to 6, 25 °C): 2.5 ± 0.13 mM; Kd (PLL3 [4]; KD, stoichiometry fixed to 7, 25 °C): 2.3 ± 0.13 mM
OC[C@H]1OC(O)[C@H](O)[C@@H](O)[C@@H]1O (stereo partly drawn) [D-glucose]	did not inhibit hemagglutination	3.7 ± 0.08 mM	3.6 ± 0.08 mM	3.4 ± 0.08 mM	3.3 ± 0.07 mM	3.1 ± 0.07 mM	inhibitory effect (PLL3 [5]; PLL3 20 μM, immobilized OMeDis, highest concentration used 400 mM): did not exhibit any inhibitory effect
C[C@H](O)[C@@H](O)[C@@H](O)[C@H](O)C=O [L-fucose]		3.4 ± 0.12 mM	3.3 ± 0.12 mM	3.2 ± 0.11 mM	3.1 ± 0.1 mM	3 ± 0.09 mM	minimal inhibitory concentration (MIC) of hemagglutination (PLL3 [3]): 1560 µM; IC50 (PLL3 [5]): 2.51 ± 0.09 mM
CO[C@@H]1O[C@@H](C)[C@@H](O)[C@@H](O)[C@@H]1O [methyl α-L-fucopyranoside]		0.7 ± 0.02 mM	0.7 ± 0.03 mM	0.6 ± 0.03 mM	0.6 ± 0.03 mM	0.6 ± 0.03 mM	minimal inhibitory concentration (MIC) of hemagglutination (PLL3 [3]): 780 µM; IC50 (PLL3 [5]; inhibition of interaction between PLL3 (20 μM) and immobilized OMeDis, read-out: IC50): 1.04 ± 0.05 mM
α-L-fucoside							glycan array response relative to trehalose (negative control) (PLL3 [6]): ~20 fold; Kd (PLL3 [1]): 0.322 ± 0.086 mM
